Results as given in patent US20230026232A1, “AHR INHIBITORS AND USES THEREOF” (Ikena Oncology, Inc., priority 2019, published 2023).
Converted amounts (≈) assume the structure as drawn. “Also recorded” adds a separate entry of the source.

Legend:
[1] = Phase 1 dose-escalation study: safety; type: in vivo; details: 200 mg, 400 mg, 800 mg, and 1200 mg QD, human patients, fed state
Text: This is a first-in-human (FIH), single-arm, dose-escalation and expansion study to evaluate the safety, tolerability, PK, pharmacodynamics, and preliminary antitumor activity of Compound A administered orally in patients with advanced solid tumors and urothelial carcinoma. Subject enrollment and continuous safety assessment will be guided by a mTPI-2 design (Guo, 2017). Decisions for dose escalation and de-escalation will be made by a Safety Review Committee (SRC) comprised of the enrolling study Investigators and the Sponsor. To assess evidence of preliminary antitumor activity, a Simon 2-stage design (Simon, 1989) is used.
Toxicity is evaluated according to National Cancer Institute Common Terminology Criteria for Adverse Events (AEs) (NCI-CTCAE) v5.0. DLT events are defined herein. AEs will be assessed, and laboratory values (chemistry, hematology, coagulation, thyroid function and urinalysis as specified herein), vital signs, and 12-lead triplicate electrocardiograms (ECGs) are obtained to evaluate the safety and tolerability of Compound A.
A modified Toxicity Probability Interval (mTPI-2) design (Guo, 2017) with a target DLT rate of approximately 30% is applied for dose escalation and confirmation to determine the Compound A RP2D. Several dose levels of Compound A, planned from 200 mg QD to 1600 mg daily, are explored. […]

AHR [2] = biological target: T1, AHR (Rattus norvegicus, UniProt P41738); assay: AHR-dependent Cyp1A1 expression (P450-Glo) in rat H411E hepatoma cells stimulated with L-kynurenine; type: cell-based; details: 100 μM L-kynurenine, 24 hours
T1 construct: In rat hepatoma H411E cells treated with 100 μM L-kynurenine; endogenous in cells; host or cells: H411E rat hepatoma cells
T1 sequence (P41738 10-853): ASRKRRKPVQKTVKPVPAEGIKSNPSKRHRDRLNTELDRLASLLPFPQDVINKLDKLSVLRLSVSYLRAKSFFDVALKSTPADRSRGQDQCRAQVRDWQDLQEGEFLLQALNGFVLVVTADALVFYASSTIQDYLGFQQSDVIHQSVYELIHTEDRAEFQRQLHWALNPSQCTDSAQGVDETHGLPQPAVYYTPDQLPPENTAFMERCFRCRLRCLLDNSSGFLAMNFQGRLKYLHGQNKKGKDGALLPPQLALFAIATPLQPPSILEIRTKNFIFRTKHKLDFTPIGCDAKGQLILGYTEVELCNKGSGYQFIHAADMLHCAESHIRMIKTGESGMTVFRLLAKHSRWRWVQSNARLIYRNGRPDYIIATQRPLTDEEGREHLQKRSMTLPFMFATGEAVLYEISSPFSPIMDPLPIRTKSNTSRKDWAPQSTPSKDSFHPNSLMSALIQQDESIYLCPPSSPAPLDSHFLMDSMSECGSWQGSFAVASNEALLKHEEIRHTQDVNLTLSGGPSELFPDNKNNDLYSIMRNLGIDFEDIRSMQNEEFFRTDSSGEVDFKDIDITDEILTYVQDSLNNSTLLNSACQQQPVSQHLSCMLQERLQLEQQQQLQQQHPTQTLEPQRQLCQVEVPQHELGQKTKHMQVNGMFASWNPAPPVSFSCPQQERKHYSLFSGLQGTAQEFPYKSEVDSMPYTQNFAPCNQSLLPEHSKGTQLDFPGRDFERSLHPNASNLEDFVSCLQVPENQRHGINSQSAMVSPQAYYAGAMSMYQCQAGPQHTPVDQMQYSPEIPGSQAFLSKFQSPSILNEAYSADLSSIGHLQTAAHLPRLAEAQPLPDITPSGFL
Protocol: The ability of Compound A to inhibit AHR-dependent Cyp1A1 gene expression was examined in vitro by measuring changes in Cyp1A1 enzymatic activity in 2 rodent hepatoma cell lines following AHR agonist stimulation. Mouse Hepa1.6 and rat H411E hepatoma cells were treated with AHR agonists VAF347 and L-kynurenine, respectively, in the presence of Compound A at multiple concentrations for 24 hours. The inhibition of Cyp1A1 expression was subsequently evaluated by measuring Cyp1A1 enzyme activity using P450-Glo assays.

[3] = Solubility of bulk API in biorelevant media by HPLC; type: physicochemical; details: thermodynamic from solid, up to 24 hours
Protocol: Solubility of bulk APIs was conducted in various biorelevant media. Small amounts of API were suspended in media and continuously agitated at room temperature for a period up to 24 hours. Samples were centrifuged to pellet out undissolved solids and the resulting supernatant was sampled, diluted, and analyzed by HPLC utilizing the short-assay method sued for dissolution sample analysis. Both forms show poor gastric solubility, with the maleate salt displaying an order of magnitude larger solubility in intestinal media.

AHR [4] = assay: Pharmacodynamics: VAG539-induced CYP1A1 mRNA in mouse liver and spleen; type: in vivo, C57BL/6 mice; details: 25 mg/kg Compound A oral
Protocol: The pharmacodynamic effect of Compound A on the inhibition of AHR-dependent gene expression in liver and spleen was examined in C57BL/6 mice.
Mice were sacrificed at 4 and 10 hours post-dose and RNA was extracted and gene expression of CYP1A1 and the housekeeping gene mouse glyceraldehyde 3-phosphate dehydrogenase were quantified. CYP1A1 mRNA expression levels for each dose group for liver and spleen tissues were normalized to the control group.

SMILES: CC(C)c1cnn2c(N[C@@H]3CCc4[nH]c5ccccc5c4C3)nc(-c3cncc(F)c3)nc12 [Compound A, (R)—N-(2-(5-fluoropyridin-3-yl)-8-isopropylpyrazolo[1,5-a][1,3,5]triazin-4-yl)-2,3,4,9-tetrahydro-1H-carbazol-3-amine]
- serious adverse events (SAEs) [1]: without any drug-related serious adverse events; also recorded: no serious adverse events
- IC50 (AHR [2]): 151 nM
- solubility ([3]; simulated gastric fluid, 0.1N HCl, room temperature): < 0.5 µg/mL
- solubility ([3]; FaSSIF, pH 6.8, room temperature): 1.4 µg/mL (≈ 3.17 µM)
- inhibition of CYP1A1 mRNA increases induced by VAG539 in the liver (AHR [4]; with 30 mg/kg VAG539): Complete inhibition
- inhibition of CYP1A1 mRNA induction in the spleen (AHR [4]; with 30 mg/kg VAG539, at 4 hours): complete inhibition
